Reference: patent publication US20260356856A1, “KRAS G12S AND G12C INHIBITORS” (MIRATI THERAPEUTICS, INC., priority 2023, published 2026)

Key:
[1] = target: T1, KRas G12C (Homo sapiens, UniProt P01116, G12C); test: KRas binding assay, TR-FRET displacement of Cy5 labelled tracer; details: 60-minute incubation at room temperature, 1% DMSO, pH 7.5
T1 construct: Biotinylated KRas (corresponding to amino acids 1-169, produced at Accelegan Inc.); biotin (biotinylated); purchased Accelegan Inc
In short: (§1)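 Each mutant protein, a biotinylated 1-169 construct, was combined with terbium streptavidin, tracer and compound. After sixty minutes at room temperature TR-FRET was recorded. POC data were fitted with a four-parameter IC50 model.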

[2] = target: T2, KRas G12S (Homo sapiens, UniProt P01116, G12S); test: as above; details: 60-minute incubation at room temperature, 1% DMSO, pH 7.5
T2 construct: Biotinylated KRas (corresponding to amino acids 1-169, produced at Accelegan Inc.); biotin (biotinylated); purchased Accelegan Inc
In short: as §1

[3] = target: T3, KRas WT (Homo sapiens, UniProt P01116); test: as above; details: 60-minute incubation at room temperature, 1% DMSO, pH 7.5
T3 construct: Biotinylated KRas (corresponding to amino acids 1-169, produced at Accelegan Inc.); biotin (biotinylated); purchased Accelegan Inc
In short: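 Final conditions: 1% DMSO, pH 7.5 HEPES buffer, 60 min, room temperature. Protein: biotin-KRas 1-169 with terbium streptavidin. Output: IC50, four-parameter fit of POC.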

[4] = target: T4, KRas-mediated phosphorylation of ERK in MKN1 cells (Homo sapiens, UniProt P01116); test: Inhibition of KRas-mediated phosphorylation of ERK (HTRF), MKN1 cells; type: cell-based; details: MKN1 cells (KRas WT); HTRF pERK; 3 h incubation
T4 construct: pERK HTRF read-out
Protocol: Inhibition of KRas Phosphorylation of ERK (HTRF) by Exemplary Compounds of Formula (Ia) or (Ib)
Cisbio HTRF Advanced pERK Assay Catalog #64AERPEH • Cells: MKN1, PSN1 • Procedure: • 1. Day 1: Seed 6,000 cells/well −25 μl/well in 384-well white solid bottom plate; RPM1_10% FBS. Incubate overnight at 37 °C/5% CO2. • 2.

[5] = target: T5, KRas-mediated phosphorylation of ERK in A549 cells (Homo sapiens, UniProt P01116, G12S); test: Inhibition of KRas-mediated phosphorylation of ERK (HTRF), A549 cells; type: cell-based; details: HTRF pERK, 3 h incubation
T5 construct: pERK HTRF read-out

[6] = target: T6, KRas-mediated phosphorylation of ERK in H358 cells (Homo sapiens, UniProt P01116, G12C); test: Inhibition of KRas-mediated phosphorylation of ERK (HTRF), H358 cells; type: cell-based; details: HTRF pERK, 3 h incubation
T6 construct: pERK HTRF read-out
T6 sequence (P01116 1-188 isoform P01116-2 G12C): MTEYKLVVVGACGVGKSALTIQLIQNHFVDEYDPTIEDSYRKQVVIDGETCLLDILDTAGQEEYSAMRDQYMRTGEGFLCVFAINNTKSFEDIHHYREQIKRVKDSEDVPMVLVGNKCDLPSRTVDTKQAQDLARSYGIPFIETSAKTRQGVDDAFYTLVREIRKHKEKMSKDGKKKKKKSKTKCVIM

T2 sequence (P01116 1-169 isoform P01116-2 G12S): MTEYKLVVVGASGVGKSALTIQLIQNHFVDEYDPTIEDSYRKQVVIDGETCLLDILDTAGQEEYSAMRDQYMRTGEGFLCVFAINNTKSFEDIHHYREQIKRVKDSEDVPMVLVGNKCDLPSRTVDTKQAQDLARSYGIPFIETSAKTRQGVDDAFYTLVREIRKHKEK
T1 sequence (P01116 1-169 isoform P01116-2 G12C): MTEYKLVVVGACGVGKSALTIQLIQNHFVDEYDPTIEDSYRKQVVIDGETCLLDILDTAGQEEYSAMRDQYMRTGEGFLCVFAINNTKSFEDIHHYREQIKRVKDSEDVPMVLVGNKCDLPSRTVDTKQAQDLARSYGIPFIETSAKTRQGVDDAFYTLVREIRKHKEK
T3 sequence (P01116 1-169 isoform P01116-2): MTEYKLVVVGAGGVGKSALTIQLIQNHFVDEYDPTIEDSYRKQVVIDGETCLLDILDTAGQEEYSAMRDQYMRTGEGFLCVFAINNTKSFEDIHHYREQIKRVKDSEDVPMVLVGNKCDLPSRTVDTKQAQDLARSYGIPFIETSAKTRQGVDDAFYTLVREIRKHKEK
T5 sequence (P01116 1-188 isoform P01116-2 G12S): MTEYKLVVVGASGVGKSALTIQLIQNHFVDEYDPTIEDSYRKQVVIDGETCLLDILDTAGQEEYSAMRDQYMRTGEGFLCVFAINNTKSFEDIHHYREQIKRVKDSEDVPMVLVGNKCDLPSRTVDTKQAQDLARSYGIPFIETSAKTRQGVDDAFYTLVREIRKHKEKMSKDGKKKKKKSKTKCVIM
T4 sequence (P01116 1-188 isoform P01116-2): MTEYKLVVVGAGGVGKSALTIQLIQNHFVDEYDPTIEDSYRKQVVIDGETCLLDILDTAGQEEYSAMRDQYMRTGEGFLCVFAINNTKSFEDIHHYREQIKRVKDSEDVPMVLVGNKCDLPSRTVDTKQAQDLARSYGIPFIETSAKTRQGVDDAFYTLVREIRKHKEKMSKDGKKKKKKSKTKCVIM

Row | SMILES | IC50 [1] | IC50 [2] | IC50 [3] | IC50 [4] | IC50 [5] | IC50 [6]
1 | COc1ccn(C(=O)C2CCCN(c3nc(OC[C@@]45CCCN4C[C@H](F)C5)nc4c(F)c(-c5ccc(F)c6sc(N)c(C#N)c56)c(Cl)cc34)CC2)n1 (stereo partly drawn) [Example 140, 2-amino-4-(6-chloro-8-fluoro-2-(((2R,7aS)-2-fluorotetrahydro-1H-pyrrolizin-7a(5H)-yl)methoxy)-4-(4-(3-methoxy-1H-pyrazole-1-carbonyl)azepan-1-yl)quinazolin-7-yl)-7-fluorobenzo[b]thiophene-3-carbonitrile] | 11 nM | 3 nM | 15 nM | 178 nM | 8 nM | 22 nM
2 | N#Cc1c(N)sc2c(F)ccc(-c3c(C(F)(F)F)cc4c(N5CCC(C(=O)Oc6ccccc6)CC5)nc(OC[C@@]56CCCN5C[C@H](F)C6)nc4c3F)c12 [Example 295, phenyl 1-(7-(2-amino-3-cyano-7-fluorobenzo[b]thiophen-4-yl)-8-fluoro-2-(((2R,7aS)-2-fluorotetrahydro-1H-pyrrolizin-7a(5H)-yl)methoxy)-6-(trifluoromethyl)quinazolin-4-yl)piperidine-4-carboxylate] | 11 nM | 12 nM | 44 nM | 56 nM | 14 nM | 5 nM
3 | Cc1ccn(C(=O)CC2CN(c3nc(OC[C@@]45CCCN4C[C@H](F)C5)nc4c(F)c(-c5ccc(F)c6sc(N)c(C#N)c56)c(Cl)cc34)C2)n1 [Example 138, 2-amino-4-(6-chloro-8-fluoro-2-(((2R,7aS)-2-fluorotetrahydro-1H-pyrrolizin-7a(5H)-yl)methoxy)-4-(3-(2-(3-methyl-1H-pyrazol-1-yl)-2-oxoethyl)azetidin-1-yl)quinazolin-7-yl)-7-fluorobenzo[b]thiophene-3-carbonitrile] | 13 nM | 6 nM | 16 nM | 106 nM | 137 nM | 157 nM
4 | CCc1c(F)ccc2cc(O)cc(-c3ncc4c(N5CCCCCC(C(=O)n6ccc(C)n6)C5)nc(OC[C@@]56CCCN5C[C@H](F)C6)nc4c3F)c12 (stereo partly drawn) [Example 55, (1-(7-(8-ethyl-7-fluoro-3-hydroxynaphthalen-1-yl)-8-fluoro-2-(((2R,7aS)-2-fluorotetrahydro-1H-pyrrolizin-7a(5H)-yl)methoxy)pyrido[4,3-d]pyrimidin-4-yl)azocan-3-yl)(3-methyl-1H-pyrazol-1-yl)methanone] | 5 nM | 28 nM | 7 nM | 50 nM | 116 nM | 90 nM
5 | CCc1c(F)ccc2cc(O)cc(-c3ncc4c(N5C[C@@H]6C[C@H](C(=O)n7ccc(C)n7)[C@@H]6C5)nc(OC[C@@]56CCCN5C[C@H](F)C6)nc4c3F)c12 [Example 211, ((1R,5R,6S)-3-(7-(8-ethyl-7-fluoro-3-hydroxynaphthalen-1-yl)-8-fluoro-2-(((2R,7aS)-2-fluorotetrahydro-1H-pyrrolizin-7a(5H)-yl)methoxy)pyrido[4,3-d]pyrimidin-4-yl)-3-azabicyclo[3.2.0]heptan-6-yl)(3-methyl-1H-pyrazol-1-yl)methanone] | 61 nM | 15 nM | 314 nM | 567 nM | 23 nM | 518 nM
6 | N#Cc1c(N)sc2c(F)ccc(-c3c(Cl)cc4c(N5CCCC(C(=O)n6cccn6)CC5)nc(OC[C@@]56CCCN5C[C@H](F)C6)nc4c3F)c12 (stereo partly drawn) [Example 131, 4-(4-(4-(1H-pyrazole-1-carbonyl)azepan-1-yl)-6-chloro-8-fluoro-2-(((2R,7aS)-2-fluorotetrahydro-1H-pyrrolizin-7a(5H)-yl)methoxy)quinazolin-7-yl)-2-amino-7-fluorobenzo[b]thiophene-3-carbonitrile] | 7 nM | 6 nM | 7 nM | 258 nM | 5 nM | 9 nM
7 | N#Cc1c(N)sc2c(F)ccc(-c3c(Cl)cc4c(N5CCC[C@H](C(=O)n6ccc(C7CC7)n6)CC5)nc(OC[C@@]56CCCN5C[C@H](F)C6)nc4c3F)c12 [Example 216, 2-amino-4-(6-chloro-4-((S)-4-(3-cyclopropyl-1H-pyrazole-1-carbonyl)azepan-1-yl)-8-fluoro-2-(((2R,7aS)-2-fluorotetrahydro-1H-pyrrolizin-7a(5H)-yl)methoxy)quinazolin-7-yl)-7-fluorobenzo[b]thiophene-3-carbonitrile] | 4 nM | 3 nM | 22 nM | 71 nM | 2 nM | 5 nM
8 | CCc1c(F)ccc2cc(O)cc(-c3ncc4c(N5CCC(C(=O)n6cc(C)cn6)CC5)nc(OC[C@@]56CCCN5C[C@H](F)C6)nc4c3F)c12 [Example 57, (1-(7-(8-ethyl-7-fluoro-3-hydroxynaphthalen-1-yl)-8-fluoro-2-(((2R,7aS)-2-fluorotetrahydro-1H-pyrrolizin-7a(5H)-yl)methoxy)pyrido[4,3-d]pyrimidin-4-yl)piperidin-4-yl)(4-methyl-1H-pyrazol-1-yl)methanone] | 96 nM | 66 nM | 107 nM | 8500 nM | 200 nM | 5580 nM
9 | CN(CCCC(=O)Nc1cccnc1)c1nc(OC[C@@]23CCCN2C[C@H](F)C3)nc2c(F)c(-c3ccc(F)c4sc(N)c(C#N)c34)c(Cl)cc12 [Example 201, 4-((7-(2-amino-3-cyano-7-fluorobenzo[b]thiophen-4-yl)-6-chloro-8-fluoro-2-(((2R,7aS)-2-fluorotetrahydro-1H-pyrrolizin-7a(5H)-yl)methoxy)quinazolin-4-yl)(methyl)amino)-N-(pyridin-3-yl)butanamide] | 4 nM | 5 nM | 6 nM | 251 nM | 1570 nM | 373 nM
10 | CN(CCCC(=O)N(C)c1cccnc1)c1nc(OC[C@@]23CCCN2C[C@H](F)C3)nc2c(F)c(-c3ccc(F)c4sc(N)c(C#N)c34)c(Cl)cc12 [Example 266, 4-((7-(2-amino-3-cyano-7-fluorobenzo[b]thiophen-4-yl)-6-chloro-8-fluoro-2-(((2R,7aS)-2-fluorotetrahydro-1H-pyrrolizin-7a(5H)-yl)methoxy)quinazolin-4-yl)(methyl)amino)-N-methyl-N-(pyridin-3-yl) butanamide] | 5 nM | 9 nM | 10 nM | 236 nM | 410 nM | 58 nM
11 | Cc1ccn(C(=O)C2CCN(c3nc(OC[C@@]45CCCN4C[C@H](F)C5)nc4c(F)c(-c5ccc(F)c6sc(N)c(C#N)c56)c(Cl)cc34)CC2)n1 [Example 133, 2-amino-4-(6-chloro-8-fluoro-2-(((2R,7aS)-2-fluorotetrahydro-1H-pyrrolizin-7a(5H)-yl)methoxy)-4-(4-(3-methyl-1H-pyrazole-1-carbonyl)piperidin-1-yl)quinazolin-7-yl)-7-fluorobenzo[b]thiophene-3-carbonitrile] | 17 nM | 7 nM | 17 nM | 105 nM | 7 nM | 20 nM
12 | Cc1ccn(C(=O)C2CCCN(c3nc(OC[C@@]45CCCN4C/C(=C\F)C5)nc4c(F)c(-c5ccc(F)c6sc(N)c(C#N)c56)c(Cl)cc34)CC2)n1 (stereo partly drawn) [Example 175, 2-amino-4-(6-chloro-8-fluoro-2-(((S,Z)-2-(fluoromethylene)tetrahydro-1H-pyrrolizin-7a(5H)-yl)methoxy)-4-(4-(3-methyl-1H-pyrazole-1-carbonyl)azepan-1-yl)quinazolin-7-yl)-7-fluorobenzo[b]thiophene-3-carbonitrile] | 9 nM | 8 nM | 16 nM | 177 nM | 6 nM | 11 nM
13 | CC(=O)N(C)C(=O)CCCNc1nc(OC[C@@]23CCCN2C[C@H](F)C3)nc2c(F)c(-c3ccc(F)c4sc(N)c(C#N)c34)c(Cl)cc12 [Example 258, N-acetyl-4-((7-(2-amino-3-cyano-7-fluorobenzo[b]thiophen-4-yl)-6-chloro-8-fluoro-2-(((2R,7aS)-2-fluorotetrahydro-1H-pyrrolizin-7a(5H)-yl)methoxy)quinazolin-4-yl)amino)-N-methylbutanamide] | 3 nM | 4 nM | 9 nM | 84 nM | 29 nM | 38 nM
14 | CC(=O)N(C)C(=O)C1CCN(c2nc(OC[C@@]34CCCN3C[C@H](F)C4)nc3c(F)c(-c4ccc(F)c5sc(N)c(C#N)c45)c(Cl)cc23)CC1 [Example 254, N-acetyl-1-((S)-7-(2-amino-3-cyano-7-fluorobenzo[b]thiophen-4-yl)-6-chloro-8-fluoro-2-(((2R,7aS)-2-fluorotetrahydro-1H-pyrrolizin-7a(5H)-yl)methoxy)quinazolin-4-yl)-N-methylpiperidine-4-carboxamide] | 3 nM | 3 nM | 4 nM | 18 nM | 5 nM | 29 nM
